Laboratory results taken from patent publication US12435083B2, “Cyclopropyl-(hetero)aryl-substituted ethylsulphonyl-pyridine derivatives” (BOEHRINGER INGELHEIM VETMEDICA GMBH, priority 2021, dated 2025).
Where two headings read alike, the source gives them in different places.

What was measured:
[1] = tested on: adult Ctenocephalides felis fleas; assay: Contact activity against adult Ctenocephalides felis (treated surface, motility by machine vision, 24 h); settings: treated surface, 24h, read-out: EC80 (% motility reduction, adult C. felis, contact)
Source text: Example 7: Screening Method to Test Contact Activity of Compounds of Formula (I) Against Adult Ctenocephalides felis

[2] = tested on: adult Rhipicephalus sanguineus ticks; assay: Contact activity against adult Rhipicephalus sanguineus (coated vial, mortality at 48 h); settings: for activity against ticks (tick contact assay), in words: in vitro profiling
Method: Example 5: Screening Method to Test Contact Activity of Compounds of Formula (I) Against Adult Rhipicephalus sanguineus
Compounds of formula (I) formulated in 100% DMSO were diluted in a solution containing acetone and Triton X-100 (0.02%). The resulting formulation was used to coat the inner walls of glass scintillation vials and the filter paper covering the cap of the vial. Once dried, ten adult R. sanguineus ticks were added to the vials. The vials were incubated at 24° C., 95% relative humidity, and 12 hours of light/12 hours of dark until evaluation. Ticks were visually evaluated for mortality at 48 hours post-treatment. Compound efficacy at a given dose is expressed as percentage mortality. A dose response series was implemented to determine EC50 values.
(§1) The four structurally closest prior art compounds (A), (B), (C) and (D) specifically excluded from the scope of formula (I) were characterized vis-a-vis selected compounds of formula (I) with regard to their potency in in vitro screening assays against fleas (Ctenocehalides felis) and ticks (Rhipicephalus sanguineus).
(§2) However, as explained above, spectrum of action against this range of species (i.e. fleas and ticks) is a desirable property of ectoparasiticides for veterinary use. In the following table 1 comparative experimental data of the in vitro assays are shown regarding flea membrane feeding (ingestion, blood feeding) activity against Ctenocephalides felis and contact activity against Rhipicephalus sanguineus.

[3] = tested on: adult Ctenocephalides felis fleas; assay: Ingestion activity (flea membrane feeding, blood feeding) against adult Ctenocephalides felis; settings: for activity against fleas (flea membrane feeding and flea contact assays), in words: in vitro profiling
Source text: Example 6: Screening Method to Test Ingestion Activity of Compounds of Formula (I) Against Adult Ctenocephalides felis
as §1
It is important to note that compounds that show better activity versus ticks are more desirable in the animal health field, as ticks are more difficult to control than fleas. Noteworthy, in particular with regard to fleas the illustrated comparative data are based on a flea membrane feeding (ingestion, blood feeding) assay. Data from this assay are more relevant for compounds intended to be delivered systemically to an animal via oral or injectable routes. Membrane feeding assays differ to primary screening laboratory contact assays in that the latter only measure the effect of the direct contact of selected compounds on the parasite, such as the flea or the tick. The information derived from laboratory contact assays is strictly limited to the ability of the compound to be absorbed through the parasite surface and to reach its molecular target, and no information can be gleaned from these contact assays as to whether the compound would also be active when presented orally to the ectoparasite itself in a blood meal, such as with the membrane feeding assay, and certainly not when administered orally to an animal host (e.g. “in vivo”) with subsequent exposure to the ectoparasite.
as §2

Plutella xylostella = assay: Insecticidal test on Plutella xylostella (Chinese cabbage seedling dip); settings: 144 h, 500 ppm, seedling dip, 6 days after dip treatment, read-out: activity level (corrected mortality rate), Plutella xylostella
Method: Example 12: Insecticidal Test on Plutella xylostella
The compounds of formula (I) of the present invention or salts thereof were separately dispersed in water and diluted to 500 ppm. Ten adults of Plutella xylostella were released onto Chinese cabbage seedlings and allowed to lay eggs thereon. 2 days after the release of the adults, the seedling was dipped in the dispersion for about 30 seconds. After air dried, the seedling was kept in a room at 25° C. 6 days after the dip treatment, the numbers of the dead and alive insects were counted. The corrected mortality rate was calculated according to the following formula and the insecticidal activity was evaluated according to the following criteria. Corrected mortality rate (%)=100×(Survival rate in an untreated plot−Survival rate in a treated plot)/Survival rate in an untreated plot • A: the corrected mortality rate is 100% • B: the corrected mortality rate is 90 to 99% • C: the corrected mortality rate is 80 to 89% • D: the corrected mortality rate is 50 to 79%

[4] = contact assay, >100 μM = not active at the top concentration, read-out: R. sanguineus contact activity EC50
[5] = flea membrane feeding (ingestion, blood feeding) assay, EC80, read-out: C. felis membrane feeding (ingestion/blood feeding) activity EC80
[6] = flea membrane feeding (ingestion, blood feeding) assay, EC80
[7] = Ctenocephalides felis, bovine blood, 24h post treatment, read-out: EC80 (% motility reduction, adult C. felis, ingestion via membrane feeding)
[8] = Rhipicephalus sanguineus, contact assay, >100 μM = not active at the top concentration, read-out: R. sanguineus contact activity EC50
[9] = Ctenocephalides felis, 24 h, flea membrane feeding (ingestion, blood feeding) assay, EC80, read-out: C. felis membrane feeding (ingestion/blood feeding) activity EC80
[10] = Rhipicephalus sanguineus, 48 hours post-treatment, coated vial, read-out: EC50 (percentage mortality, adult R. sanguineus, contact)

CCS(=O)(=O)c1cc(-c2ccc(C3CC3)cc2)cnc1-n1cc2ncc(C(F)(F)F)cc2n1 [Compound 48, 5-(4-cyclopropylphenyl)-3-(ethanesulfonyl)-2-[6-(trifluoromethyl)pyrazolo[4,3-b]pyridin-2-yl]pyrid-ine]
EC80 [1]: 1 to 10 µM

CCS(=O)(=O)c1cc(-c2ccc(C3CC3)nc2)cnc1-c1nc2cc(SC(F)(F)F)nnc2n1C [compound 186]
EC50 [2, 4]: < 10 µM | EC80 [3, 5]: <1 µM

CCS(=O)(=O)c1cc(-c2ccc(C3CC3)nn2)cnc1-c1nc2cc(C(F)(F)C(F)(F)F)cnc2n1C [compound 153]
EC50 [2, 4]: 10 to 100 µM | C. felis membrane feeding (ingestion/blood feeding) activity EC80 [3, 6]: 1 to 10 µM

CCS(=O)(=O)c1cc(-c2nccc(C3CC3)n2)cnc1-c1nc2cc(C(F)(F)C(F)(F)F)cnc2n1C [compound 165]
EC50 [2, 4]: 10 to 100 µM | EC80 [3, 5]: <1 µM

CCS(=O)(=O)c1cc(-c2ccc(C3(C#N)CC3)nc2)cnc1-c1nc2cc(C(F)(F)F)n(C3CC3)c(=O)c2n1C [compound 133]
EC50 [2, 4]: 10 to 100 µM | C. felis membrane feeding (ingestion/blood feeding) activity EC80 [3, 6]: 1 to 10 µM

CCS(=O)(=O)c1cc(-c2cccnc2C2CC2)cnc1-c1nc2cc(C(F)(F)C(F)(F)F)cnc2n1C [compound 169]
EC50 [2, 4]: 10 to 100 µM | C. felis membrane feeding (ingestion/blood feeding) activity EC80 [3, 6]: 1 to 10 µM

C=CCn1cc(C(F)(F)F)cc2nc(-c3ncc(-c4ccc(C5(C#N)CC5)cc4)cc3S(=O)(=O)CC)c(F)c1-2 [Compound 198, 1-{4-[5-(ethanesulfonyl)-6-[3-fluoro-4-(prop-2-en-1-yl)-6-(trifluoromethyl)pyrrolo[3,2-b]pyridin-2-yl]pyridin-3-yl]phenyl}cyclopropane-1-carbonitrile]
EC80 [3, 7]: 1 to 10 µM

CCS(=O)(=O)c1cc(-c2ccc(C3(C#N)CC3)cc2)cnc1-n1ncc2ccc(C(F)(F)F)cc2c1=O [(A), reference compound]
activity against ticks (tick contact assay), in words ([2]; Rhipicephalus sanguineus): no activity | EC50 [2, 8]: > 100 µM | EC80 [3, 9]: > 10 µM | activity against fleas (flea membrane feeding and flea contact assays), in words ([3]; Ctenocephalides felis): some activity

CCS(=O)(=O)c1cc(-c2cc(C3CC3)nc(C)n2)cnc1-c1nc2cc(C(F)(F)C(F)(F)F)nnc2n1C [compound 142]
EC50 [2, 4]: 10 to 100 µM | C. felis membrane feeding (ingestion/blood feeding) activity EC80 [3, 6]: 1 to 10 µM

CCS(=O)(=O)c1cc(-c2ccc(C3CC3)cc2)cnc1-n1cc2ccc(C(F)(F)F)cc2n1 [Compound 46, 2-[5-(4-cyclopropylphenyl)-3-(ethanesulfonyl)pyridin-2-yl]-6-(trifluoromethyl)indazole]
EC50 [2, 10]: 10 to 100 µM | EC50 [2, 8]: 10 to 100 µM | EC80 [3, 9]: 1 to 10 µM | EC80 [3, 7]: 1 to 10 µM

CCS(=O)(=O)c1cc(-c2ccc(C3(C#N)CC3)cc2)cnc1-c1nc2cc(C(F)(F)C(F)(F)F)cnc2n1C [compound 80]
EC50 [2, 4]: 10 to 100 µM | EC80 [3, 5]: <1 µM

CCS(=O)(=O)c1cc(-c2ccc(C3(C#N)CC3)cc2)cnc1-c1nc2cc(C(F)(F)F)n(C3CC3)c(=O)c2n1C [compound 88]
EC50 [2, 4]: 10 to 100 µM | C. felis membrane feeding (ingestion/blood feeding) activity EC80 [3, 6]: 1 to 10 µM

CCS(=O)(=O)c1cc(-c2cc(C3CC3)nc(C)n2)cnc1-c1nc2cc(C(F)(F)C(F)(F)F)cnc2n1C [compound 166]
EC50 [2, 4]: 10 to 100 µM | EC80 [3, 5]: <1 µM

CCS(=O)(=O)c1cc(-c2ccc(C3CC3)cc2)cnc1-c1cc2n(C(F)F)cc(C(F)(F)F)cc-2n1 [Compound 97]
EC50 [2, 8]: 10 to 100 µM | EC80 [3, 9]: < 1 µM | mortality at 500 ppm (Plutella xylostella): 100%

CCS(=O)(=O)c1cc(-c2ccc(C3CC3(F)F)cc2)cnc1-c1nc2cc(C(F)(F)C(F)(F)F)nnc2n1C (centres unmarked) [compound 135]
EC50 [2, 4]: 10 to 100 µM | C. felis membrane feeding (ingestion/blood feeding) activity EC80 [3, 6]: 1 to 10 µM

CCS(=O)(=O)c1cc(-c2ccc(C3CC3)cn2)cnc1-n1ncc(OCC(F)(F)C(F)(F)F)cc1=O [(D), reference compound]
activity against ticks (tick contact assay), in words ([2]; Rhipicephalus sanguineus): no activity | EC50 [2, 8]: > 100 µM | EC80 [3, 9]: > 10 µM | activity against fleas (flea membrane feeding and flea contact assays), in words ([3]; Ctenocephalides felis): some activity

CCn1cc(C(F)(F)F)cc2nc(-c3ncc(-c4cccc(C5CC5)n4)cc3S(=O)(=O)CC)cc1-2 [compound 113]
mortality at 500 ppm (Plutella xylostella): 100%

CCS(=O)(=O)c1cc(-c2ccc(C3(F)CC3)nc2)cnc1-c1nc2cc(C(F)(F)F)n(C3CC3)c(=O)c2n1C [Compound 176, 5-cyclopropyl-2-[5-(ethanesulfonyl)-6′-(1-fluorocyclopropyl)-[3,3′-bipyridin]-6-yl]-3-methyl-6-(trifluoromethyl)imidazo[4,5-c]pyridin-4-one]
EC50 [2, 10]: 10 to 100 µM | EC80 [3, 7]: 1 to 10 µM

CCn1c(=O)c(C(F)(F)F)cc2nc(-c3ncc(-c4ccc(C5CC5)cc4)cc3S(=O)(=O)CC)n(C)c21 [compound 214, 2-[5-(4-cyclopropylphenyl)-3-(ethanesulfonyl)pyridin-2-yl]-4-ethyl-3-methyl-6-(trifluoromethyl)-3H,4H,5H-imidazo[4,5-b]pyridin-5-one]
EC80 [3, 7]: < 1 µM

CCS(=O)(=O)c1cc(-c2ccc(C3CC3)cc2)cnc1-c1nc2cc(C(F)(F)F)cn(CC(F)F)c-2c1F [compound 12]
EC50 [2, 4]: 10 to 100 µM | EC80 [3, 5]: <1 µM

CCS(=O)(=O)c1cc(-c2ccc(C3(F)CC3)cc2)cnc1-c1nc2cc(C(F)(F)F)n(C3CC3)c(=O)c2n1C [compound 124]
EC50 [2, 4]: 10 to 100 µM | C. felis membrane feeding (ingestion/blood feeding) activity EC80 [3, 6]: 1 to 10 µM

CCS(=O)(=O)c1cc(-c2ccc(C3CC3)nc2)cnc1-c1nc2cc(C(F)(F)F)n(C3CC3)c(=O)c2n1C [compound 89]
EC50 [2, 4]: 10 to 100 µM | C. felis membrane feeding (ingestion/blood feeding) activity EC80 [3, 6]: 1 to 10 µM

CCS(=O)(=O)c1cc(-c2ccc(C3CC3)cc2)cnc1-n1ncc2ncc(C(F)(F)C(F)(F)F)cc21 [Compound 191, 5-(4-cyclopropylphenyl)-3-(ethanesulfonyl)-2-[6-(1,1,2,2,2-pentafluoroethyl)-1H-pyrazolo[4,3-b]pyridin-1-yl]pyridine]
mortality at 500 ppm (Plutella xylostella): 100%

CCS(=O)(=O)c1cc(-c2nc(C)cc(C3CC3)n2)cnc1-c1nc2cc(C(F)(F)F)ncc2n1C [(C), reference compound]
activity against ticks (tick contact assay), in words ([2]; Rhipicephalus sanguineus): no activity | EC50 [2, 8]: > 100 µM | EC80 [3, 9]: > 10 µM | activity against fleas (flea membrane feeding and flea contact assays), in words ([3]; Ctenocephalides felis): some activity

CCS(=O)(=O)c1cc(-c2ccc(C3(C#N)CC3)cc2)cnc1-n1nc2ccc(C(F)(F)F)cn2c1=O [(B), reference compound]
activity against ticks (tick contact assay), in words ([2]; Rhipicephalus sanguineus): no activity | EC50 [2, 8]: > 100 µM | EC80 [3, 9]: > 10 µM | activity against fleas (flea membrane feeding and flea contact assays), in words ([3]; Ctenocephalides felis): some activity
